{
  "source": "patent US10611818B2",
  "about": "“MHC multimers in tuberculosis diagnostics, vaccine and therapeutics” (priority 2007, dated 2020)",
  "origin": "cited, not measured here",
  "test_system": "T2 cells",
  "settings": "CD8 T-cell clones 8, 9, 10, 11 and 12",
  "data": [
    {"sequence": "GLQHWVPEL [BA4697-105, irrelevant peptide used to load T2 target cells]", "values": [
      {"measurement": "lysis of T2 cells pulsed with peptide", "result": "without killing"}
    ]}
  ]
}
